Results as given in patent publication US10508120B2, “TYK2 inhibitors and uses thereof” (Nimbus Lakshmi, Inc., priority 2017, dated 2019).
Where two headings read alike, the source gives them in different places.

Columns and labels:
[1] = molecular target: human TYK2 (JH2domain-pseudokinase) (Homo sapiens (Human), UniProt P29597); test: TYK2 JH2 Domain Binding Assay (KINOMEscan)
Method in brief: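 Competition binding of an NFkB-DBD fusion of human TYK2 JH2 (G556–D888), expressed in HEK293 and used as crude extract at <0.1 nM, against immobilized ligand beads; 1 h at room temperature in PBS/Tween/DTT/BSA buffer, 0.9% DMSO.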

JAK2 kinase domain (JH1) = JAK2 kinase domain (JH1) (Homo sapiens (Human), UniProt O60674); test: JAK2 Radioactive Kinase Assay; format: biochemical; details: read-out: JAK2 JH1% Inhibition @ 10 μM
Method in brief: (§1)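 Compounds were tested at a single concentration of 10 μM in a radiometric kinase format against each isolated kinase domain. Activity is reported as percent inhibition at that concentration.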

Tyk2 kinase domain (DH1) = Tyk2 kinase domain (DH1) (Homo sapiens (Human), UniProt P29597); test: Tyk2 Radioactive Kinase Assay; format: biochemical; details: read-out: Tyk2 JH1% Inhibition @ 10 μM
Method in brief: as §1

Chain of Tyk2 kinase domain (DH1) (P29597 897-1176): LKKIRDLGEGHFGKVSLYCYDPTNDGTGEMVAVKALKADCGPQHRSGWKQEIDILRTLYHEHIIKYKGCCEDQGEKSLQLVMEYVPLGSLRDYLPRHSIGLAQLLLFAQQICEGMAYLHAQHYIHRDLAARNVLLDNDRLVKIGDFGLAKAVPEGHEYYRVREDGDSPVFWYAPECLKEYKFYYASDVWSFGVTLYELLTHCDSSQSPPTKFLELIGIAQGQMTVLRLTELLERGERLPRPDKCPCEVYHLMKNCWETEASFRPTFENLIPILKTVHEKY
Chain of JAK2 kinase domain (JH1) (O60674 849-1124): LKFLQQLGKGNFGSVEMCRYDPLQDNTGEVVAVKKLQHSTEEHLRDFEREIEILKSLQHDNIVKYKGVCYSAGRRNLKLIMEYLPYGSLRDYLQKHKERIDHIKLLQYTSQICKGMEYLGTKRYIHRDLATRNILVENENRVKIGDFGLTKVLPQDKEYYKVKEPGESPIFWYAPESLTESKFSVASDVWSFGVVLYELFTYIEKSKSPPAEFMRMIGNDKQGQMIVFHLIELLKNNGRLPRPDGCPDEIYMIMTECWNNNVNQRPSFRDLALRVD
Chain of human TYK2 (JH2domain-pseudokinase) (P29597 556-888): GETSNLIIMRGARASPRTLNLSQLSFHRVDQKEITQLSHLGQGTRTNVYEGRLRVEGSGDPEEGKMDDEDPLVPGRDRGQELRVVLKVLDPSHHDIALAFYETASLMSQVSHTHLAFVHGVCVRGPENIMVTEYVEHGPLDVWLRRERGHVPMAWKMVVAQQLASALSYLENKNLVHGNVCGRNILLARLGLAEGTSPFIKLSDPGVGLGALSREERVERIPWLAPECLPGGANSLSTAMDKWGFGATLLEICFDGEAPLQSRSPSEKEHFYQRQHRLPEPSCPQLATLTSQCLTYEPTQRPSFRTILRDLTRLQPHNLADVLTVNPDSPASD

SMILES	Kd [1] [nM]	inhibition at 10 µM (JAK2 kinase domain (JH1); 10 μM compound, 10 μM ATP) [%]	inhibition at 10 µM (Tyk2 kinase domain (DH1); 10 μM compound, 10 μM ATP) [%]	inhibition at 10 µM (JAK2 kinase domain (JH1); compound at 10 μM, ATP 10 μM) [%]	inhibition at 10 µM (Tyk2 kinase domain (DH1); compound at 10 μM, ATP 10 μM) [%]
CNc1cc(-n2cc(N3CCN(C)CC3)c3ncccc32)nc2c(C(=O)N[C@H]3C[C@H]3F)cnn12 [I-575]	1 to 10	–	–	< 50	< 50
CN(C)C(=O)c1cnc(-n2cccc(Nc3cc(N)n4ncc(C(N)=O)c4n3)c2=O)cn1 [I-38]	0.2 to 1	–	–	< 50	< 50
NC(=O)c1cnn2c(N)cc(Nc3cccc(N4CCOC4=O)n3)nc12 [I-66]	0.2 to 1	–	–	50 to 70	< 50
CNc1cc(Nc2cccn([C@H]3CCC[C@@H](OC)C3)c2=O)nc2c(C(=O)NC3CC3)cnn12 [I-622]	0.2 to 1	–	–	< 50	< 50
CNc1cc(Nc2cccn(-c3nn(C)c(C)c3C)c2=O)nc2c(C(=O)NC3CC3)cnn12 [I-504]	0.2 to 1	–	–	< 50	< 50
CNc1cc(Nc2cccn(C3CCN(CC(F)F)CC3)c2=O)nc2c(C(=O)N[C@H]3C[C@H]3F)cnn12 [I-230]	0.2 to 1	–	–	< 50	< 50
CNc1cc(Nc2cccn([C@H]3CCOC3)c2=O)nc2c(C(N)=O)cnn12 [I-196]	0.2 to 1	–	–	< 50	< 50
CNc1cc(Nc2cccn([C@@H]3CCCN(CCC#N)C3)c2=O)nc2c(C(=O)N[C@@H]3C[C@@H]3F)cnn12 [I-1041]	0.2 to 1	< 50	< 50	–	–
CNc1cc(Nc2cccn([C@@H]3CCCN(C)C3)c2=O)nc2c(C(=O)N[C@@H]3C[C@@H]3F)cnn12 [I-536]	0.2 to 1	–	–	< 50	< 50
CNc1cc(Nc2ccc3c(n2)OCCO3)nc2c(C(=O)N[C@H]3C[C@H]3F)cnn12 [I-532]	0.2 to 1	–	–	< 50	< 50
CNc1cc(Nc2cccn(C3CCOCC3)c2=O)nc2c(C(=O)N[C@H]3CC[C@H]3O)cnn12 [I-527]	0.2 to 1	–	–	< 50	< 50
CNc1cc(Nc2cccn([C@H]3CCCC[C@H]3O)c2=O)nc2c(C(=O)N[C@H]3CC[C@@H]3OC)cnn12 [I-1058]	0.2 to 1	< 50	< 50	–	–
CNc1cc(Nc2cc(F)cnc2OC(C)C)nc2c(C(=O)NC3CC3)cnn12 [I-209]	0.2 to 1	–	–	< 50	< 50
CNc1cc(Nc2cc(Cl)cnc2OC(C)C)nc2c(C(=O)NC3CCC3)cnn12 [I-149]	1 to 10	–	–	< 50	< 50
CNc1cc(-c2cn(CCN3CCN(C)CC3)c3ncccc23)nc2c(C(=O)N[C@@H]3CC[C@H]3OC)cnn12 [I-953]	0.2 to 1	< 50	< 50	–	–
CNc1cc(Nc2cc(Cl)cnc2OC(C)C)nc2c(C(=O)NC3CC3)cnn12 [I-150]	0.2 to 1	–	–	< 50	< 50
CNc1cc(Nc2cccnc2OC(C)C)nc2c(C(=O)NC3CC3)cnn12 [I-146]	0.2 to 1	–	–	< 50	< 50
CNc1cc(-n2cc(N3CCCC3)c3ncccc32)nc2c(C(=O)N[C@@H]3C[C@@H]3F)cnn12 [I-553]	0.2 to 1	–	–	< 50	< 50

Other lines, results leading:

Kd [1] [nM]	inhibition at 10 µM (JAK2 kinase domain (JH1); 10 μM compound, 10 μM ATP) [%]	inhibition at 10 µM (Tyk2 kinase domain (DH1); 10 μM compound, 10 μM ATP) [%]	inhibition at 10 µM (JAK2 kinase domain (JH1); compound at 10 μM, ATP 10 μM) [%]	inhibition at 10 µM (Tyk2 kinase domain (DH1); compound at 10 μM, ATP 10 μM) [%]	SMILES
< 0.2	50 to 70	< 50	–	–	CNc1cc(Nc2cccnc2OC)nc2c(-c3cn(C(C)C)nn3)cnn12 [I-1008, 3-(1-isopropyl-1H-1,2,3-triazol-4-yl)-N5-(2-methoxypyridin-3-yl)-N7-methylpyrazolo[1,5-a]pyrimidine-5,7-diamine]
< 0.2	–	–	< 50	< 50	CNc1cc(Nc2cccn([C@H]3CCN(C)C[C@@H]3F)c2=O)nc2c(C(=O)NC3CC3)cnn12 [I-608]
0.2 to 1	–	–	< 50	< 50	CNc1cc(Nc2cccc(N3CCCC3)n2)nc2c(C(=O)NC3CC3)cnn12 [I-382]
0.2 to 1	–	–	< 50	< 50	Cc1cc(Nc2cc(N)n3ncc(C(N)=O)c3n2)c(=O)n(-c2ccn(C)n2)c1 [I-34]
< 0.2	< 50	< 50	–	–	CNc1cc(Nc2cccn([C@H]3C[C@@H]3F)c2=O)nc2c(C(=O)N[C@H]3CC[C@H]3O)cnn12 (mixture of isomers) [I-1090, 5-((1-((1S,2S)-2-fluorocyclopropyl)-2-oxo-1,2-dihydropyridin-3-yl)amino)-N-(2-hydroxycyclobutyl)-7-(methylamino)pyrazolo[1,5-a]pyrimidine-3-carboxamide]
0.2 to 1	–	–	< 50	< 50	CNc1cc(Nc2cccn(C3CCN(C)CC3)c2=O)nc2c(C(=O)NC3CC3)cnn12 [I-348]
< 0.2	< 50	< 50	–	–	CNc1cc(Nc2cccn(C3CCN(CCF)CC3)c2=O)nc2c(C(=O)NCC3(CO)CC3)cnn12 [I-846]
< 0.2	–	–	< 50	50 to 70	CNc1cc(Nc2cccn([C@@H]3CCCOC3)c2=O)nc2c(C(=O)NCC(C)(C)CO)cnn12 [I-598]
0.2 to 1	–	–	< 50	< 50	CNc1cc(Nc2cc(Cl)cn([C@@H]3CCCOC3)c2=O)nc2c(C(=O)N[C@H]3[C@@H]4COC[C@@H]43)cnn12 [I-799]
< 0.2	–	–	< 50	< 50	CNc1cc(Nc2cccn(-c3cccc(C(C)(C)O)n3)c2=O)nc2c(C(N)=O)cnn12 [I-37]
< 0.2	< 50	< 50	–	–	CNc1cc(Nc2cccn(C3CCCCC3)c2=O)nc2c(C(=O)N[C@H]3CC[C@H]3O)cnn12 [I-942]
< 0.2	–	–	< 50	< 50	CNc1cc(Nc2cccn([C@@H]3CC[C@H]3O)c2=O)nc2c(C(=O)NC3CC3)cnn12 [I-742]
< 0.2	–	–	< 50	< 50	CNc1cc(Nc2cc(C)cnc2OC2CC2)nc2c(C(=O)N[C@H]3C[C@H]3F)cnn12 [I-279]
< 0.2	–	–	< 50	< 50	CNc1cc(Nc2cccnc2OC)nc2c(C(=O)NC(C)(C)C#N)cnn12 [I-476, N-(2-cyanopropan-2-yl)-5-((2-methoxypyridin-3-yl)amino)-7-(methylamino)-pyrazolo[1,5-a]pyrimidine-3-carboxamide]
< 0.2	–	–	< 50	< 50	CNc1cc(Nc2cccn(-c3ccn(C)n3)c2=O)nc2c(C(=O)N[C@H]3C[C@H]3F)cnn12 [I-140]
0.2 to 1	< 50	< 50	–	–	CNc1cc(Nc2cccn([C@@H]3CCCC[C@@H]3OC)c2=O)nc2c(C(=O)N[C@H]3CC[C@@H]3OC)cnn12 [I-1037]
< 0.2	–	–	< 50	< 50	CNc1cc(Nc2cccn(-c3ccnc(C)n3)c2=O)nc2c(C(=O)NC3CC3)cnn12 [I-125]
< 0.2	–	–	< 50	< 50	CNc1cc(Nc2cccn(C3CCOCC3)c2=O)nc2c(C(=O)NCC(C)CO)cnn12 (stereo not drawn) [I-649]
< 0.2	–	–	< 50	< 50	CNc1cc(Nc2cccn(-c3ccccn3)c2=O)nc2c(C(=O)N[C@@H]3CC[C@@H]3O)cnn12 [I-743]
< 0.2	< 50	< 50	–	–	CNc1cc(Nc2cccn(-c3ncccc3F)c2=O)nc2c(C(=O)NC[C@H](C)CO)cnn12 [I-868]
< 0.2	< 50	< 50	–	–	CNc1cc(Nc2cccn(-c3ccccc3F)c2=O)nc2c(C(=O)NCC(C)CO)cnn12 (stereo not drawn) [I-941]
< 0.2	< 50	< 50	–	–	CNc1cc(Nc2cccc(N3CC4(CCO4)C3)n2)nc2c(C(=O)N[C@H]3CC[C@H]3O)cnn12 [I-872]
< 0.2	–	–	< 50	< 50	CNc1cc(Nc2cccn([C@H]3CCCOC3)c2=O)nc2c(C(=O)N[C@@H]3CC[C@@H]3O)cnn12 [I-696]
< 0.2	–	–	< 50	< 50	CNc1cc(Nc2cccn([C@H]3CCC[C@@H](OC)C3)c2=O)nc2c(C(=O)N[C@@H]3C[C@@H]3F)cnn12 [I-795]
< 0.2	–	–	< 50	< 50	CNc1cc(Nc2cccn([C@@H]3CCCN(C)C3)c2=O)nc2c(C(=O)NC3CC3)cnn12 [I-512]
< 0.2	–	–	< 50	< 50	CNc1cc(Nc2cccn(-c3ccon3)c2=O)nc2c(C(N)=O)cnn12 [I-43, 5-((1-(isoxazol-3-yl)-2-oxo-1,2-dihydropyridin-3-yl)amino)-7-(methylamino)pyrazolo[1,5-a]pyrimidine-3-carboxamide]
< 0.2	–	–	< 50	< 50	CNc1cc(Nc2cccn(C3CCOCC3)c2=O)nc2c(C(=O)N[C@H]3CC[C@@H]3O)cnn12 [I-528]
< 0.2	–	–	< 50	< 50	[2H]C([2H])([2H])Oc1ncccc1Nc1cc(NC)n2ncc(C(=O)N[C@H]3CCC[C@H](O)C3)c2n1 [I-460]
